Data reported in US10617119B1, “Piscicide composition” (priority 2018, dated 2020).

Tested on: Koi
Assay: Feeding of toxic pellets to Koi in aquatic tanks (consumption, mortality)
Format: in vivo
Details: juvenile Koi

| SMILES | mortality / toxicity |
| --- | --- |
| CC(=O)Nc1ccc(O)cc1 [acetaminophen] | None of the Koi died |
| [O]=[Ca] [calcium oxide] | did not kill Koi |
